According to PubChem BioAssay (NCI):
Where “and” joins values, the source holds several entries; their conditions need not be identical. Equal entries are not always repeated.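 The compound was tested at five concentrations on cells cultured in 96-well plates, with a 48-hour exposure period. GI50: concentration for 50% inhibition of growth. Definition used: TGI = concentration required for complete inhibition of growth.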

What was measured:
Assay in all cases: NCI-60 cell line screen, 48 h
786-0 renal = tested on: 786-0 renal
NCI-H460 lung = tested on: NCI-H460 lung
NCI-H226 lung = tested on: NCI-H226 lung
MOLT-4 leukemia = tested on: MOLT-4 leukemia
NCI-H23 lung = tested on: NCI-H23 lung
OVCAR-8 ovarian = tested on: OVCAR-8 ovarian
HCC-2998 colon = tested on: HCC-2998 colon
SNB-75 CNS = tested on: SNB-75 CNS
CCRF-CEM leukemia = tested on: CCRF-CEM leukemia
A498 renal = tested on: A498 renal
NCI-H522 lung = tested on: NCI-H522 lung
NCI/ADR-RES ovarian = tested on: NCI/ADR-RES ovarian
SR leukemia = tested on: SR leukemia
HOP-62 NSCLC = tested on: HOP-62 NSCLC
SK-MEL-28 melanoma = tested on: SK-MEL-28 melanoma
UACC-257 melanoma = tested on: UACC-257 melanoma
OVCAR-5 ovarian = tested on: OVCAR-5 ovarian
OVCAR-3 ovarian = tested on: OVCAR-3 ovarian
K-562 leukemia = tested on: K-562 leukemia
MCF7 breast = tested on: MCF7 breast
U251 CNS = tested on: U251 CNS
ACHN renal = tested on: ACHN renal
SF-295 CNS = tested on: SF-295 CNS
LOX IMVI melanoma = tested on: LOX IMVI melanoma
T-47D breast = tested on: T-47D breast
HL-60(TB) leukemia = tested on: HL-60(TB) leukemia
UO-31 renal = tested on: UO-31 renal
KM12 colon = tested on: KM12 colon

CC(C)C[C@H](NC(=O)[C@@H](NC(=O)c1cccc(-c2ccccc2)n1)[C@@H](C)O)B(O)O
GI50 (786-0 renal): 12 nM and 14.7 nM
GI50 (NCI-H460 lung): 28.5 nM and 23.7 nM
TGI (NCI-H460 lung): 532 nM
GI50 (NCI-H226 lung): 2.19 nM and < 11.6 nM
TGI (NCI-H226 lung): 5.38 nM and 24.5 nM
GI50 (MOLT-4 leukemia): 2.89 nM
TGI (MOLT-4 leukemia): 8.87 nM
GI50 (NCI-H23 lung): 6.33 nM
GI50 (OVCAR-8 ovarian): 26.1 nM and 23.8 nM
TGI (OVCAR-8 ovarian): > 51600 nM
GI50 (HCC-2998 colon): 5.17 nM and 11.6 nM
TGI (HCC-2998 colon): 17.1 nM and 18.9 nM
GI50 (SNB-75 CNS): 14.4 nM and 10.5 nM
TGI (SNB-75 CNS): 45.4 nM and 30.8 nM
TGI (CCRF-CEM leukemia): > 5160 nM
GI50 (A498 renal): 2.47 nM
TGI (A498 renal): 6.1 nM and < 17.8 nM
GI50 (NCI-H522 lung): 3.02 nM
TGI (NCI-H522 lung): 8.81 nM
GI50 (NCI/ADR-RES ovarian): 345 nM and 249 nM
TGI (NCI/ADR-RES ovarian): 6190 nM
GI50 (SR leukemia): 3.01 nM
TGI (SR leukemia): 8.43 nM and < 102 nM
GI50 (HOP-62 NSCLC): 10.6 nM and < 10.6 nM
TGI (HOP-62 NSCLC): 35.8 nM and 39.1 nM
GI50 (SK-MEL-28 melanoma): 4.73 nM
TGI (SK-MEL-28 melanoma): 41.9 nM and 56.3 nM
GI50 (UACC-257 melanoma): 5.02 nM
TGI (UACC-257 melanoma): 31.9 nM and 21.3 nM
GI50 (OVCAR-5 ovarian): 8.43 nM and < 11.2 nM
TGI (OVCAR-5 ovarian): 51.3 nM
GI50 (OVCAR-3 ovarian): 3.85 nM
TGI (OVCAR-3 ovarian): 19.1 nM and < 11 nM
GI50 (K-562 leukemia): 6.49 nM and 19 nM
TGI (K-562 leukemia): 30800 nM
GI50 (MCF7 breast): 4.25 nM
TGI (MCF7 breast): 36800 nM
GI50 (U251 CNS): 25.1 nM and 17.6 nM
TGI (U251 CNS): 1920 nM
GI50 (ACHN renal): 4.08 nM
TGI (ACHN renal): > 11100 nM
GI50 (SF-295 CNS): 10.2 nM
TGI (SF-295 CNS): 55.3 nM and 26.2 nM
GI50 (LOX IMVI melanoma): 4.73 nM
TGI (LOX IMVI melanoma): 18.1 nM and 11.9 nM
GI50 (T-47D breast): 5.06 nM
TGI (T-47D breast): 23.1 nM
GI50 (HL-60(TB) leukemia): 3.79 nM and 10.1 nM
TGI (HL-60(TB) leukemia): 162 nM and 28.7 nM
GI50 (UO-31 renal): 21.5 nM and 18.3 nM
TGI (UO-31 renal): 84.9 nM and 114 nM
GI50 (KM12 colon): 13.2 nM and 12.7 nM
